Active and inactive are the calls of the source. No cut-off for these calls is given here.
What was measured:
AtT20 = assay: Displacement of [125I]Tyr11-somatostatin-14 from Sst receptor in mouse AtT-20 cells at 100 uM measured after 60 mins by scintillation counting method relative to control; type: cell-based
[1] = Protection index, ratio of TD50 for neurotoxicity in po dosed mouse to ED50 for po dosed pentylenetetrazole induced seizure mouse model; type: toxicity, organism-based; conditions: in vivo, read-out: Ratio TD50/ED50
Mus musculus [2] = assay: Neurotoxicity in mouse assessed as induction of motor impairment at 300 mg/kg, ip measured at 0.5 hrs post dose by rotarod method; type: toxicity, organism-based; conditions: in vivo
[3] = Protection index, ratio of TD50 for neurotoxicity in po dosed mouse to ED50 for po dosed maximal electroshock induced seizure mouse model; type: toxicity, organism-based; conditions: in vivo, read-out: Ratio TD50/ED50
Mus musculus [4] = assay: Neurotoxicity in mouse assessed as induction of motor impairment at 300 mg/kg, ip measured at 4 hrs post dose by rotarod method; type: toxicity, organism-based; conditions: in vivo
Mus musculus [5] = assay: Anticonvulsant activity in 6-Hz induced seizure mouse model assessed as restoration of normal activity within 10 secs from stimulation at 100 mg/kg, ip at 32 mA measured at 1 hr post dose; type: functional, organism-based
Rattus norvegicus [6] = species: Rattus norvegicus; assay: Displacement of [125I]alpha-dendrotoxin from rat cerebral cortex Kv channel at 100 uM measured after 60 mins by scintillation counting method relative to control
[7] = molecular target: B2 bradykinin receptor (Homo sapiens) (UniProt P30411); assay: Displacement of [3H]bradykinin from human recombinant bradykinin B2 receptor expressed in CHO cells at 100 uM measured after 60 mins by scintillation counting method relative to control; type: cell-based
Sequence of B2 bradykinin receptor (Homo sapiens) (P30411 whole entry): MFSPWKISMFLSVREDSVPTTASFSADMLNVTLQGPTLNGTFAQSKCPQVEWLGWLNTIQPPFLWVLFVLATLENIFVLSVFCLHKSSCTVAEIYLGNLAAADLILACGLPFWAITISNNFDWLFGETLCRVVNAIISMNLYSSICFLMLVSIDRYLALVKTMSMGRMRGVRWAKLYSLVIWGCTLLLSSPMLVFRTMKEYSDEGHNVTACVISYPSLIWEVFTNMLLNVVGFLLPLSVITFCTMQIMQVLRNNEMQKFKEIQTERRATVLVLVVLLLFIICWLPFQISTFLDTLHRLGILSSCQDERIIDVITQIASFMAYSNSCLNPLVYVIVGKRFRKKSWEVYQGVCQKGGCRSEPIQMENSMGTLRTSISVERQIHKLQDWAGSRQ

[8] = molecular target: Neurotensin receptor type 1 (Homo sapiens) (UniProt P30989); assay: Displacement of [125I]Tyr3-neurotensin from human recombinant NTS1 receptor expressed in CHO cells at 100 uM measured after 60 mins by scintillation counting method relative to control; type: cell-based
Sequence of Neurotensin receptor type 1 (Homo sapiens) (P30989 whole entry): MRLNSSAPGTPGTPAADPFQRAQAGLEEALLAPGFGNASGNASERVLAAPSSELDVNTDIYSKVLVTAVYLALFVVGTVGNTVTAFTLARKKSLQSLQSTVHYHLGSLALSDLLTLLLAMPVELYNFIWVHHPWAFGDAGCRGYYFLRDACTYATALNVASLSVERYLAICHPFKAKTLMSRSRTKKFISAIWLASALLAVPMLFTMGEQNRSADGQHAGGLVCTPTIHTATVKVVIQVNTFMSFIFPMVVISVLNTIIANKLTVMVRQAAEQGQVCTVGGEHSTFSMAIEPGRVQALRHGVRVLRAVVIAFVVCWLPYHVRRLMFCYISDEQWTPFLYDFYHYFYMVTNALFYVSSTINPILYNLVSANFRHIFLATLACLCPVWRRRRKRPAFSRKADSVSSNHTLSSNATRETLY

Mus musculus [9] = assay: Anticonvulsant activity in po dosed 6-Hz induced seizure mouse model assessed as restoration of normal activity within 10 secs from stimulation at 44 mA; type: functional
Rattus norvegicus [10] = species: Rattus norvegicus; assay: Displacement of [3H]D888 from rat cerebral cortex calcium channel L type verapamil binding site at 100 uM measured after 120 mins by scintillation counting method relative to control
[11] = Protection index, ratio of TD50 for neurotoxicity in po dosed mouse to ED50 for po dosed 6-Hz induced seizure mouse model at 44 mA; type: toxicity, organism-based; conditions: in vivo, read-out: Ratio TD50/ED50
Mus musculus [12] = assay: Anticonvulsant activity in po dosed 6-Hz induced seizure mouse model assessed as restoration of normal activity within 10 secs from stimulation by measuring time to peak effect at 44 mA; type: functional
Rattus norvegicus [13] = assay: Anticonvulsant activity in maximal electroshock induced seizure Sprague-Dawley rat model assessed as suppression in hindlimb tonic extension at 30 mg/kg, po measured at 1 hr post dose; type: functional, organism-based
Rattus norvegicus [14] = species: Rattus norvegicus; assay: Displacement of [125I][Tyr4]bombesin from rat cerebral cortex BB receptor at 100 uM measured after 60 mins by scintillation counting method relative to control
[15] = molecular target: Type-1 angiotensin II receptor (Homo sapiens) (UniProt P30556); assay: Displacement of [125I][Sar1,Ile8]-AT2 from human recombinant AT1 receptor expressed in HEK293 cells at 100 uM measured after 120 mins by scintillation counting method relative to control; type: cell-based
Sequence of Type-1 angiotensin II receptor (Homo sapiens) (P30556 whole entry): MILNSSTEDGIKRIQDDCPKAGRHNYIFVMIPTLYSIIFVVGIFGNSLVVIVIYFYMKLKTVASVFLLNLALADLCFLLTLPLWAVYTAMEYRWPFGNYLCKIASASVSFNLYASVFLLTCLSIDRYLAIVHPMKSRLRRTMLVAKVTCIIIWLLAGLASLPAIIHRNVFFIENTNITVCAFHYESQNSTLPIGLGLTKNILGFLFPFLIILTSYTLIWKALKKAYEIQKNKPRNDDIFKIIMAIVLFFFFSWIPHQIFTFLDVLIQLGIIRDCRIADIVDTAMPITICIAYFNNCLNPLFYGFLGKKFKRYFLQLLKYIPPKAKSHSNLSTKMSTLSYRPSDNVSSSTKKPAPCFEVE

[16] = molecular target: Calcitonin gene-related peptide type 1 receptor (Homo sapiens) (UniProt Q16602); assay: Displacement of [125I]hCGRPa from human recombinant CGRP receptor expressed in CHO cells at 100 uM measured after 90 mins by scintillation counting method relative to control; type: cell-based
Sequence of Calcitonin gene-related peptide type 1 receptor (Homo sapiens) (Q16602 whole entry): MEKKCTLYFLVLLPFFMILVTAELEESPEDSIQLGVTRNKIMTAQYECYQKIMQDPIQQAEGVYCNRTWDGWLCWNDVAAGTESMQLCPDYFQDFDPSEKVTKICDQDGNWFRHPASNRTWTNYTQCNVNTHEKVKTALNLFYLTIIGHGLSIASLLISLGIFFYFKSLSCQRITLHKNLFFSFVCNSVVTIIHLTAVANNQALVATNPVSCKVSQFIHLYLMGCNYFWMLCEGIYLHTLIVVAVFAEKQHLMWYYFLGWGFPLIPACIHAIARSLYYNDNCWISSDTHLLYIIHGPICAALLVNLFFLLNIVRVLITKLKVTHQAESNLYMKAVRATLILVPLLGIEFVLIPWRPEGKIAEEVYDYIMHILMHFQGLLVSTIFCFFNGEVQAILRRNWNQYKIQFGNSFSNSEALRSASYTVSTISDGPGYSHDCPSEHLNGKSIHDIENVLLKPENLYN

Mus musculus [17] = assay: Anticonvulsant activity in po dosed pentylenetetrazole induced seizure mouse model assessed as no observable episode of clonic convulsion of at least 5 secs; type: functional
Mus musculus [18] = assay: Anticonvulsant activity in po dosed pentylenetetrazole induced seizure mouse model assessed as no observable episode of clonic convulsion of at least 5 secs by measuring time to peak effect; type: functional
[19] = Neurotoxicity in po dosed mouse; type: toxicity, organism-based; conditions: in vivo
[20] = molecular target: Histamine H1 receptor (Homo sapiens) (UniProt P35367); assay: Displacement of [3H]pyrilamine from human recombinant H1 receptor expressed in HEK293 cells at 100 uM measured after 60 mins by scintillation counting method relative to control; type: cell-based
Sequence of Histamine H1 receptor (Homo sapiens) (P35367 whole entry): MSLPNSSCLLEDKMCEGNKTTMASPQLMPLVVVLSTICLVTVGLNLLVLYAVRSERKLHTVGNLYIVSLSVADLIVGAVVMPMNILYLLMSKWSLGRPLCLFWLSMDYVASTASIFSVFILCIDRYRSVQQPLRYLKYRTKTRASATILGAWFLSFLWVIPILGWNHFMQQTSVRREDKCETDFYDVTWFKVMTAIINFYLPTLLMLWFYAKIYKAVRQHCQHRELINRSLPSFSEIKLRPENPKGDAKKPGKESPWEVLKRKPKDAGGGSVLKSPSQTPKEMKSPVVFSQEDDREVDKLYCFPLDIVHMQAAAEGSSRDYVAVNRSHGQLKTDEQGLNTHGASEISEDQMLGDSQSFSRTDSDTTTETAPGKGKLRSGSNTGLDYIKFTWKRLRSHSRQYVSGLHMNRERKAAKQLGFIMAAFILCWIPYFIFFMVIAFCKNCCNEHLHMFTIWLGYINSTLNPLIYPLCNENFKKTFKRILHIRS

Rattus norvegicus [21] = assay: Neurotoxicity in Sprague-Dawley rat assessed as behavioral change at 50 mg/kg, ip measured at 2 hrs post dose; type: toxicity, organism-based; conditions: in vivo
Rattus norvegicus [22] = assay: Neurotoxicity in Sprague-Dawley rat assessed as behavioral change at 50 mg/kg, ip measured at 4 hrs post dose; type: toxicity, organism-based; conditions: in vivo
[23] = molecular target: Glucocorticoid receptor (Homo sapiens) (UniProt P04150); assay: Displacement of [3H]dexamethasone from GR receptor in human IM9 cells at 100 uM relative to control; type: cell-based; conditions: IM-9
Sequence of Glucocorticoid receptor (Homo sapiens) (P04150 whole entry): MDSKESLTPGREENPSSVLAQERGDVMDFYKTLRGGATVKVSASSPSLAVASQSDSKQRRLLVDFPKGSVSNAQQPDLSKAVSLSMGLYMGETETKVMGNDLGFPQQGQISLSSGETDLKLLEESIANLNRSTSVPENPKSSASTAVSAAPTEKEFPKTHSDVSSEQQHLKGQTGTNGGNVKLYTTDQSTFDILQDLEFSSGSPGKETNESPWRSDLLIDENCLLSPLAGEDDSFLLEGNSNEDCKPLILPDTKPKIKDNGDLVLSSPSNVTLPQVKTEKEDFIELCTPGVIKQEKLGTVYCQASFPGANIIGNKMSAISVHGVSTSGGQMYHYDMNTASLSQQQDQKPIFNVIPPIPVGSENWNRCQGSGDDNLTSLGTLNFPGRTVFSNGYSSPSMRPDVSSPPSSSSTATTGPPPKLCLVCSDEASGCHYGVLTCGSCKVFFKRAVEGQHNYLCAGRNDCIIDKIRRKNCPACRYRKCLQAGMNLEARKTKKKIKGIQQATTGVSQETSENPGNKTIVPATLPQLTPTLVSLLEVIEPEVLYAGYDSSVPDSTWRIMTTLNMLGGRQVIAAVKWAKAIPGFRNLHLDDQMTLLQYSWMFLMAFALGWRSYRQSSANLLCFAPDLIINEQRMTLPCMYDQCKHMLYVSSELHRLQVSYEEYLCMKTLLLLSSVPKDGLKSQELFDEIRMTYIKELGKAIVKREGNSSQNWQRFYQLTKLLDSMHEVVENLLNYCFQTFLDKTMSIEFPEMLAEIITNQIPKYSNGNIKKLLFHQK

Mus musculus [24] = assay: Anticonvulsant activity in maximal electroshock induced seizure mouse model assessed as suppression in hindlimb tonic extension at 300 mg/kg, ip measured at 4 hrs post dose; type: functional, organism-based
Mus musculus [25] = assay: Anticonvulsant activity in 6-Hz induced seizure mouse model assessed as restoration of normal activity within 10 secs from stimulation at 100 mg/kg, ip at 44 mA measured at 0.5 hrs post dose; type: functional, organism-based
[26] = molecular target: Gastrin/cholecystokinin type B receptor (Homo sapiens) (UniProt P32239); assay: Displacement of [125I]CCK-8s from human recombinant CCK2 receptor expressed in CHO cells at 100 uM measured after 60 mins by scintillation counting method relative to control; type: cell-based
Sequence of Gastrin/cholecystokinin type B receptor (Homo sapiens) (P32239 whole entry): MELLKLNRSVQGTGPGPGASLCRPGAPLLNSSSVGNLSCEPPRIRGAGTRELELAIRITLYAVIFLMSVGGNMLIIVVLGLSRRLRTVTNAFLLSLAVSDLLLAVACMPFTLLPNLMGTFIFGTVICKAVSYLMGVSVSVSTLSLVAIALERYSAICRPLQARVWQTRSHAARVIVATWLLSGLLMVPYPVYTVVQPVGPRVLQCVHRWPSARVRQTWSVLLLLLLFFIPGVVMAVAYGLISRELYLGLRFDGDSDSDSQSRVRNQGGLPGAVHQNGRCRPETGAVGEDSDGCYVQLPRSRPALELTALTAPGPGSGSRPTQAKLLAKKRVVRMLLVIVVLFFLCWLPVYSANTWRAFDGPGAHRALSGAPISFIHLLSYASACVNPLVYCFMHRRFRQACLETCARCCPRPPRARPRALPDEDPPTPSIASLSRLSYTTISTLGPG

Rattus norvegicus [27] = assay: Neurotoxicity in Sprague-Dawley rat assessed as behavioral change at 50 mg/kg, ip measured at 0.5 hrs post dose; type: toxicity, organism-based; conditions: in vivo
Rattus norvegicus [28] = assay: Neurotoxicity in Sprague-Dawley rat assessed as behavioral change at 50 mg/kg, ip measured at […] post dose; type: toxicity, organism-based; conditions: in vivo
[29] = molecular target: Vasopressin V1a receptor (Homo sapiens) (UniProt P37288); assay: Displacement of [3H]AVP from human recombinant V1a receptor expressed in CHO cells at 100 uM measured after 60 mins by scintillation counting method relative to control; type: cell-based
Sequence of Vasopressin V1a receptor (Homo sapiens) (P37288 whole entry, looked up): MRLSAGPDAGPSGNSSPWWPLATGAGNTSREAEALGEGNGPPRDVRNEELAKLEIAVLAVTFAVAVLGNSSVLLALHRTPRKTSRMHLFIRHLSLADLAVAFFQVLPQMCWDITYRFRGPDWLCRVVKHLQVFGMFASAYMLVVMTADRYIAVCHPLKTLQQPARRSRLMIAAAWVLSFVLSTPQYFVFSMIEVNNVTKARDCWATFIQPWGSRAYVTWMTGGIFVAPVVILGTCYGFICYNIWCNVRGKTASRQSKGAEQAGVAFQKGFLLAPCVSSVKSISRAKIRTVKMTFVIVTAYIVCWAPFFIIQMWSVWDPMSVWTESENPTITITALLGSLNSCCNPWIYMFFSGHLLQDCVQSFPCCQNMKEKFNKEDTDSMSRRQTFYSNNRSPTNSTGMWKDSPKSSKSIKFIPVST

[30] = molecular target: Neuropeptide Y receptor type 2 (Homo sapiens) (UniProt P49146); assay: Displacement of [125I]peptide YY from Y2 in human KAN-TS cells receptor at 100 uM measured after 60 mins by scintillation counting method relative to control; type: cell-based
Sequence of Neuropeptide Y receptor type 2 (Homo sapiens) (P49146 whole entry): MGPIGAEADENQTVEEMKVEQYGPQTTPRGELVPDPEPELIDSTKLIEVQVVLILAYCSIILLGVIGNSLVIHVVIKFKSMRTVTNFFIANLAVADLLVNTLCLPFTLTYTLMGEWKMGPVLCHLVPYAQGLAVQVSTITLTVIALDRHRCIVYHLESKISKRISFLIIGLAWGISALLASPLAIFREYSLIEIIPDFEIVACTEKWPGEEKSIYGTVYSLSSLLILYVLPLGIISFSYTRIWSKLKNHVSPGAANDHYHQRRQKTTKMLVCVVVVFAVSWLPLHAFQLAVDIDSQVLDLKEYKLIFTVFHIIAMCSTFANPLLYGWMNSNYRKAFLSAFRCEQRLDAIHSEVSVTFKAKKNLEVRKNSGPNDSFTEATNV

[31] = molecular target: Histamine H2 receptor (Homo sapiens) (UniProt P25021); assay: Displacement of [125I]APT from human recombinant H2 receptor expressed in CHO cells at 100 uM measured after 120 mins by scintillation counting method relative to control; type: cell-based
Sequence of Histamine H2 receptor (Homo sapiens) (P25021 whole entry): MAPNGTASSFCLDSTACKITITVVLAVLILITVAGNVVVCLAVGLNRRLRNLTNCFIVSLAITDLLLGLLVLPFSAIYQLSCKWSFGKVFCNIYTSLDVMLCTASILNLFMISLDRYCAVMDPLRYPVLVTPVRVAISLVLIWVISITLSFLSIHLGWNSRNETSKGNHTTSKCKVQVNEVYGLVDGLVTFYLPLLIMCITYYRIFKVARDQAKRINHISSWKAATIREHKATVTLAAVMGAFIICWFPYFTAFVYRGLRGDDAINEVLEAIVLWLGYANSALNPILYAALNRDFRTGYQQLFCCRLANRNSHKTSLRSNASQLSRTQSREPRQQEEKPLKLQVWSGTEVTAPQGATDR

Mus musculus [32] = assay: Anticonvulsant activity in pentylenetetrazole induced seizure mouse model assessed as no observable episode of clonic convulsion of at least 5 secs at 300 mg/kg, ip measured at 4 hrs post dose; type: functional, organism-based
Rattus norvegicus [33] = assay: Neurotoxicity in Sprague-Dawley rat assessed as behavioral change at 50 mg/kg, ip measured at 1 hr post dose; type: toxicity, organism-based; conditions: in vivo
Rattus norvegicus [34] = species: Rattus norvegicus; assay: Displacement of [3H]a,b-MeATP from rat urinary bladder P2X receptor at 100 uM measured after 120 mins by scintillation counting method relative to control
Rattus norvegicus [35] = assay: Neurotoxicity in po dosed Sprague-Dawley rat assessed as behavioral change by measuring time to peak effect; type: toxicity, organism-based; conditions: in vivo
Rattus norvegicus [36] = assay: Anticonvulsant activity in maximal electroshock induced seizure Sprague-Dawley rat model assessed as suppression in hindlimb tonic extension at 30 mg/kg, ip measured at 0.5 hrs post dose; type: functional, organism-based

## Cc1ccccc1/C=C/C(=O)N[C@@H](C)CO
AtT20
  inhibition: -4.6%
[1]
  selectivity ratio: 2.15
Mus musculus [2]
  Activity: Toxic
[3]
  selectivity ratio: 6.51
Mus musculus [4]
  Activity: Non-Toxic
Mus musculus [5]
  Activity: Active
Rattus norvegicus [6]
  inhibition: -8.7%
[7]
  inhibition: -8.3%
[8]
  inhibition: -4.6%
Mus musculus [9]
  ED50: 74.1 mg/kg
Rattus norvegicus [10]
  inhibition: -0.4%
[11]
  selectivity ratio: 3.81
Mus musculus [12]
  Time: 0.5 h
Rattus norvegicus [13]
  Activity: Active
Rattus norvegicus [14]
  inhibition: -3.4%
[15]
  inhibition: -0.8%
[16]
  inhibition: -7.6%
Mus musculus [17]
  ED50: 132 mg/kg
Mus musculus [18]
  Time: 0.5 h
[19]
  TD50: 282 mg/kg

## CC(O)CNC(=O)/C=C/c1ccc(Cl)cc1 (configuration not stated)
[20]
  inhibition: -10%
Rattus norvegicus [21]
  Activity: Non-Toxic
Rattus norvegicus [22]
  Activity: Non-Toxic
[23]
  inhibition: -7%
[1]
  selectivity ratio: > 3.79
Mus musculus [24]
  Activity: Active
Mus musculus [2]
  Activity: Toxic
[3]
  selectivity ratio: > 5.41
Mus musculus [4]
  Activity: Toxic
Mus musculus [25]
  Activity: Active
Mus musculus [5]
  Activity: Active
Rattus norvegicus [6]
  inhibition: -9.6%
[7]
  inhibition: -1%
[26]
  inhibition: -9.8%
Rattus norvegicus [27]
  Activity: Non-Toxic
Rattus norvegicus [28]
  Activity: Non-Toxic
[8]
  inhibition: -2.6%
Mus musculus [9]
  ED50: 120 mg/kg
[29]
  inhibition: 9%
Rattus norvegicus [10]
  inhibition: -2.5%
[11]
  selectivity ratio: > 4.17
[30]
  inhibition: 14.1%
Mus musculus [12]
  Time: 1 h
[31]
  inhibition: -6.4%
Rattus norvegicus [14]
  inhibition: -0.1%
[15]
  inhibition: -9.6%
[16]
  inhibition: -6.9%
Mus musculus [17]
  ED50: 132 mg/kg
Mus musculus [18]
  Time: 1 h
[19]
  TD50: > 500 mg/kg
Mus musculus [32]
  Activity: Active
Rattus norvegicus [33]
  Activity: Non-Toxic

## CCC(CO)NC(=O)/C=C/c1ccc(Cl)cc1 (configuration not stated)
Rattus norvegicus [34]
  inhibition: -8.2%
AtT20
  inhibition: -10%
Rattus norvegicus [21]
  Activity: Non-Toxic
Rattus norvegicus [22]
  Activity: Non-Toxic
[23]
  inhibition: -9.9%
Mus musculus [24]
  Activity: Active
Rattus norvegicus [35]
  Time: 4 h
Mus musculus [25]
  Activity: Active
Rattus norvegicus [27]
  Activity: Non-Toxic
Rattus norvegicus [28]
  Activity: Non-Toxic
Rattus norvegicus [36]
  Activity: Active
[29]
  inhibition: 10.6%
[30]
  inhibition: 4.3%
[31]
  inhibition: -5.2%
Rattus norvegicus [33]
  Activity: Non-Toxic

— ChEMBL document CHEMBL3875185, “Structure-anticonvulsant activity studies in the group of (E)-N-cinnamoyl aminoalkanols derivatives monosubstituted in phenyl ring with 4-Cl, 4-CH3 or 2-CH3” (Bioorg Med Chem, 2017)
